Assay results published in ChEMBL document CHEMBL1135894, “Design and synthesis of a novel and potent series of inhibitors of cytosolic phospholipase A(2) based on a 1,3-disubstituted propan-2-one skeleton” (J Med Chem, 2002).

Test system: HL-60
Assay: Inhibition of [3H]arachidonic acid production by stimulated HL60 cells.
Assay type: functional, cell-based
Conditions: Homo sapiens

Compound	IC50
CCCCCCCCCCOc1ccc(OCC(=O)COc2ccc(C(=O)O)cc2)cc1	2.8 µM
CCCCC/C=C\C/C=C\C/C=C\C/C=C\CCCC(=O)C(F)(F)F [ARACHIDONYL TRIFLUOROMETHYLKETONE]	29 µM
